According to patent US9546153B2, “Bicyclic heterocycle substituted pyridyl compounds useful as kinase modulators” (BRISTOL-MYERS SQUIBB COMPANY, priority 2012, dated 2017):

Each compound was assayed against IRAK4 (Homo sapiens (Human), UniProt Q9NWZ3) (assay: IRAK4 Inhibition Assay). Details: ATP 500 μM; IRAK4 0.6 nM; 60 min at room temperature.
Format: biochemical
Experimental: The assays were performed in U-bottom 384-well plates. […] The reaction was initiated by the combination of IRAK4 with substrates and test compounds. The reaction was incubated at room temperature for 60 min. and terminated by adding 45 μL of 35 mM EDTA to each sample. The reaction mixture was analyzed on the Caliper LABCHIP® 3000 (Caliper, Hopkinton, Mass.) by electrophoretic separation of the fluorescent substrate and phosphorylated product.

IRAK4, sequence (Q9NWZ3 whole entry, species assumed): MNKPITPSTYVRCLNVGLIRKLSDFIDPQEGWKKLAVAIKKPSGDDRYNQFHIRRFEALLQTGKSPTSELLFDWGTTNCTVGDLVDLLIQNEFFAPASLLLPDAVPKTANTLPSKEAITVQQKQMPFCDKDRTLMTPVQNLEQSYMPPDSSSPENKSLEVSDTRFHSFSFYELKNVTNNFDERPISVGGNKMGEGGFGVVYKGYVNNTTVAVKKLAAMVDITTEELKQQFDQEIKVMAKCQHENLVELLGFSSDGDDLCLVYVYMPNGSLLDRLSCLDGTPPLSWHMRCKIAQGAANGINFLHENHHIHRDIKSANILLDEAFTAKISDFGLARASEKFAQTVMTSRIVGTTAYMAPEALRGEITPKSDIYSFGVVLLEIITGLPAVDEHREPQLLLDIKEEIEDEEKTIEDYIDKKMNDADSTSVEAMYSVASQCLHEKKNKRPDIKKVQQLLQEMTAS

| SMILES | IC50 [nM] |
| --- | --- |
| CC(C)Nc1cc(Nc2ccc3ncsc3c2)ncc1C(=O)NCC[C@@H](C)NC(=O)CC1CCCOC1 (stereo partly shown) [Example 194] | 2.5 |
| CC(C)Nc1cc(Nc2ccc3ncsc3c2)ncc1C(=O)N[C@H]1CC[C@H](C(=O)NC(C)C)CC1 [Example 195] | 2 |
| CC(C)Nc1cc(Nc2ccc3ncsc3c2)ncc1C(=O)N[C@H]1CC[C@H](C(=O)NCC(C)(C)O)CC1 [Example 196] | 3.5 |
| CC(C)Nc1cc(Nc2ccc3ncsc3c2)ncc1C(=O)NCC[C@@H](C)NC(=O)[C@@H]1CC[C@H](F)C1 [Example 198] | 2.6 |
| CC(=O)NCCCNC(=O)c1cnc(Nc2ccc3ncsc3c2)cc1NC(C)C [Example 199] | 8.4 |
| CC(=O)N[C@H]1CC[C@H](NC(=O)c2cnc(Nc3ccc4ncsc4c3)cc2NC(C)C)CC1 [Example 200] | 2.2 |
| CC(C)Nc1cc(Nc2ccc3ncsc3c2)ncc1C(=O)N[C@H]1CC[C@H](NC(=O)c2ccccn2)CC1 [Example 201] | 4.5 |
| CC(C)Nc1cc(Nc2ccc3ncsc3c2)ncc1C(=O)N[C@H]1CC[C@H](NC(=O)c2cccnc2)CC1 [Example 202] | 2.4 |
| CC(C)Nc1cc(Nc2ccc3ncsc3c2)ncc1C(=O)N[C@H]1CC[C@H](N)CC1 [Example 203] | 3.4 |
| CC(C)Nc1cc(Nc2ccc3ncsc3c2)ncc1C(=O)N[C@H]1CC[C@H](NS(C)(=O)=O)CC1 [Example 204] | 2.6 |
| CC(C)Nc1cc(Nc2ccc3ncsc3c2)ncc1C(=O)N[C@H]1CC[C@H](NC(=O)N2CCOCC2)CC1 [Example 205] | 1.8 |
| CC(C)NC(=O)N[C@H]1CC[C@H](NC(=O)c2cnc(Nc3ccc4ncsc4c3)cc2NC(C)C)CC1 [Example 206] | 2.1 |
| CC(C)Nc1cc(Nc2ccc3ncsc3c2)ncc1C(=O)N[C@H]1CC[C@H](NC(=O)c2ccncc2)CC1 [Example 207] | 1.7 |
| CC(C)Nc1cc(Nc2ccc3ncsc3c2)ncc1C(=O)NCC[C@@H](C)NC(=O)N(C)c1ccccc1 [Example 208] | 3.7 |
| CC(=O)NCCCCNC(=O)c1cnc(Nc2ccc3ncsc3c2)cc1NC(C)C [Example 209] | 5.3 |
| CC(C)Nc1cc(Nc2ccc3ncsc3c2)ncc1C(=O)NCC[C@@H](C)NC(=O)N1CCCC1 [Example 212] | 6.9 |
| CC(C)Nc1cc(Nc2ccc3ncsc3c2)ncc1C(=O)N[C@H]1CC[C@H](C(=O)NC2(C#N)CC2)CC1 [Example 213] | 3.1 |
| CC(C)Nc1cc(Nc2ccc3ncsc3c2)ncc1C(=O)N[C@H]1CC[C@H](C(=O)NC23CC4CC(CC(O)(C4)C2)C3)CC1 [Example 214] | 6.7 |
| CC(=O)N[C@H]1CC[C@@H](NC(=O)c2cnc(Nc3ccc4ncsc4c3)cc2NC(C)C)CC1 [Example 216] | 3.5 |
| CC(C)Nc1cc(Nc2ccc3ncsc3c2)ncc1C(=O)NC1CCN(S(C)(=O)=O)CC1 [Example 217] | 5 |
| CC(C)Nc1cc(Nc2ccc3ncsc3c2)ncc1C(=O)NC1CCN(C(=O)N2CCOCC2)CC1 [Example 218] | 7 |
| CC(C)Nc1cc(Nc2ccc3ncsc3c2)ncc1C(=O)NC1CCN(C(=O)c2cccnc2)CC1 [Example 219] | 4.8 |
| CC(C)Nc1cc(Nc2ccc3ncsc3c2)ncc1C(=O)N[C@H]1CC[C@H](C(=O)NC23CCC(O)(CC2)C3)CC1 [Example 220] | 3.4 |
| CNC(=O)[C@H]1CC[C@H](NC(=O)c2cnc(Nc3ccc4ncsc4c3)cc2NC(C)C)C1 [Example 221] | 10.5 |
| CC(C)Nc1cc(Nc2ccc3ncsc3c2)ncc1C(=O)N[C@H]1CC[C@H](C(=O)NC2(C#N)CC2)C1 [Example 222] | 9.9 |
| CC(C)Nc1cc(Nc2ccc3ncsc3c2)ncc1C(=O)NC12CCC(N)(CC1)CC2 [Example 223] | 4.2 |
| CC(C)Nc1cc(Nc2ccc3ncsc3c2)ncc1C(=O)NC12CCC(N)(CC1)C2 [Example 224] | 9.6 |
| CCNC(=O)[C@H]1CC[C@H](NC(=O)c2cnc(Nc3ccc4ncsc4c3)cc2NC(C)C)CC1 [Example 225] | 3.3 |
| CC(C)Nc1cc(Nc2ccc3ncsc3c2)ncc1C(=O)NC12CCC(C(=O)NCC(C)(C)O)(CC1)CC2 [Example 226] | 3.4 |

The compounds below were run on TLR2 induced IL-6 in peripheral blood mononuclear cells (PBMCs) (assay: PBMC TLR2 Induced IL-6 Assay). Details: Homo sapiens, PBMC, 5 h, human PBMCs, 10 μg/ml lipoteichoic acid for 5 hours, IL-6 by ELISA; value without asterisk; read-out: Cell IC50.
Format: cell-based, human
How it was run: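 IL-6 ELISA of supernatants after a 5 h challenge with the TLR2 agonist lipoteichoic acid (10 μg/ml). Before stimulation, human PBMCs (250000 cells/well; RPMI, 10% heat-inactivated FCS) received compound for 30 min at 37° C. Values given as IC50 or EC50.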

| SMILES | IC50 [nM] |
| --- | --- |
| CC(C)Nc1cc(Nc2ccc3ncsc3c2)ncc1C(=O)NCC[C@@H](C)NC(=O)CC1CCCOC1 (stereo partly shown) [Example 194] | 208 |
| CC(C)Nc1cc(Nc2ccc3ncsc3c2)ncc1C(=O)N[C@H]1CC[C@H](C(=O)NC(C)C)CC1 [Example 195] | 162 |
| CC(C)Nc1cc(Nc2ccc3ncsc3c2)ncc1C(=O)N[C@H]1CC[C@H](C(=O)NCC(C)(C)O)CC1 [Example 196] | 325 |
| CC(C)Nc1cc(Nc2ccc3ncsc3c2)ncc1C(=O)NCC[C@@H](C)NC(=O)[C@@H]1CC[C@H](F)C1 [Example 198] | 307 |
| CC(=O)NCCCNC(=O)c1cnc(Nc2ccc3ncsc3c2)cc1NC(C)C [Example 199] | 551 |
| CC(=O)N[C@H]1CC[C@H](NC(=O)c2cnc(Nc3ccc4ncsc4c3)cc2NC(C)C)CC1 [Example 200] | 94 |
| CC(C)Nc1cc(Nc2ccc3ncsc3c2)ncc1C(=O)N[C@H]1CC[C@H](NC(=O)c2ccccn2)CC1 [Example 201] | 499 |
| CC(C)Nc1cc(Nc2ccc3ncsc3c2)ncc1C(=O)N[C@H]1CC[C@H](NC(=O)c2cccnc2)CC1 [Example 202] | 156 |
| CC(C)Nc1cc(Nc2ccc3ncsc3c2)ncc1C(=O)N[C@H]1CC[C@H](N)CC1 [Example 203] | 307 |
| CC(C)Nc1cc(Nc2ccc3ncsc3c2)ncc1C(=O)N[C@H]1CC[C@H](NS(C)(=O)=O)CC1 [Example 204] | 252 |
| CC(C)Nc1cc(Nc2ccc3ncsc3c2)ncc1C(=O)N[C@H]1CC[C@H](NC(=O)N2CCOCC2)CC1 [Example 205] | 169 |
| CC(C)NC(=O)N[C@H]1CC[C@H](NC(=O)c2cnc(Nc3ccc4ncsc4c3)cc2NC(C)C)CC1 [Example 206] | 139 |
| CC(C)Nc1cc(Nc2ccc3ncsc3c2)ncc1C(=O)N[C@H]1CC[C@H](NC(=O)c2ccncc2)CC1 [Example 207] | 158 |
| CC(C)Nc1cc(Nc2ccc3ncsc3c2)ncc1C(=O)NCC[C@@H](C)NC(=O)N(C)c1ccccc1 [Example 208] | 647 |
| CC(=O)NCCCCNC(=O)c1cnc(Nc2ccc3ncsc3c2)cc1NC(C)C [Example 209] | 875 |
| CC(C)Nc1cc(Nc2ccc3ncsc3c2)ncc1C(=O)NCC[C@@H](C)NC(=O)N1CCCC1 [Example 212] | 712 |
| CC(C)Nc1cc(Nc2ccc3ncsc3c2)ncc1C(=O)N[C@H]1CC[C@H](C(=O)NC2(C#N)CC2)CC1 [Example 213] | 403 |
| CC(C)Nc1cc(Nc2ccc3ncsc3c2)ncc1C(=O)N[C@H]1CC[C@H](C(=O)NC23CC4CC(CC(O)(C4)C2)C3)CC1 [Example 214] | 371 |
| CC(=O)N[C@H]1CC[C@@H](NC(=O)c2cnc(Nc3ccc4ncsc4c3)cc2NC(C)C)CC1 [Example 216] | 604 |
| CC(C)Nc1cc(Nc2ccc3ncsc3c2)ncc1C(=O)NC1CCN(S(C)(=O)=O)CC1 [Example 217] | 560 |
| CC(C)Nc1cc(Nc2ccc3ncsc3c2)ncc1C(=O)NC1CCN(C(=O)N2CCOCC2)CC1 [Example 218] | 471 |
| CC(C)Nc1cc(Nc2ccc3ncsc3c2)ncc1C(=O)NC1CCN(C(=O)c2cccnc2)CC1 [Example 219] | 447 |
| CC(C)Nc1cc(Nc2ccc3ncsc3c2)ncc1C(=O)N[C@H]1CC[C@H](C(=O)NC23CCC(O)(CC2)C3)CC1 [Example 220] | 328 |
| CNC(=O)[C@H]1CC[C@H](NC(=O)c2cnc(Nc3ccc4ncsc4c3)cc2NC(C)C)C1 [Example 221] | 462 |
| CC(C)Nc1cc(Nc2ccc3ncsc3c2)ncc1C(=O)N[C@H]1CC[C@H](C(=O)NC2(C#N)CC2)C1 [Example 222] | 692 |
| CC(C)Nc1cc(Nc2ccc3ncsc3c2)ncc1C(=O)NC12CCC(N)(CC1)CC2 [Example 223] | 238 |
| CC(C)Nc1cc(Nc2ccc3ncsc3c2)ncc1C(=O)NC12CCC(N)(CC1)C2 [Example 224] | 280 |
| CCNC(=O)[C@H]1CC[C@H](NC(=O)c2cnc(Nc3ccc4ncsc4c3)cc2NC(C)C)CC1 [Example 225] | 535 |
| CC(C)Nc1cc(Nc2ccc3ncsc3c2)ncc1C(=O)NC12CCC(C(=O)NCC(C)(C)O)(CC1)CC2 [Example 226] | 274 |
